Data taken from ChEMBL document CHEMBL1201862, “PubChem BioAssay data set” (2004).
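Protocol summary: plate cells (96-well), add compound at 5 concentrations, incubate 48 h, interpolate endpoints linearly. GI50 marks 50% less growth.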 Activity calls are given as the source filed them. Rule as the data show it: active = GI50 up to about 1.1 µM and inactive = higher.

Tests used:
Experiment in all cases: DTP human tumour cell line panel, 48 h
BT-549 = test system: BT-549
CCRF-CEM = test system: CCRF-CEM
DU-145 = test system: DU-145
EKVX = test system: EKVX
HCT-116 = test system: HCT-116
MCF7 = test system: MCF7
MDA-N = test system: MDA-N
MOLT-4 = test system: MOLT-4
NCI-H460 = test system: NCI-H460
NCI-H522 = test system: NCI-H522
NCI/ADR-RES = test system: NCI/ADR-RES
SF-295 = test system: SF-295
SK-OV-3 = test system: SK-OV-3
SR = test system: SR
UACC-257 = test system: UACC-257
HOP-92 = test system: HOP-92
OVCAR-5 = test system: OVCAR-5

Measured: GI50

O=C(O)Cc1cccc2c1OC(c1ccccc1)C(Cl)(C(=O)c1ccccc1)C2=O (centres undefined)
inactive: BT-549 43 µM | CCRF-CEM 3.21 µM | DU-145 24.4 µM | EKVX 21.5 µM | HCT-116 15.1 µM | MCF7 6.01 µM | MDA-N 14.4 µM | MOLT-4 22.4 µM | NCI-H460 19.9 µM | NCI-H522 14.2 µM | NCI/ADR-RES 22.2 µM | SF-295 23 µM | SK-OV-3 > 100 µM | SR 20.4 µM | UACC-257 15.3 µM

COC(=O)C(Cc1c[nH]c2ccccc12)NC1=Nc2ccncc2S(=O)(=O)N1c1ccccc1 (centres undefined)
inactive: BT-549 35 µM | CCRF-CEM 14.1 µM | DU-145 41.4 µM | EKVX > 100 µM | HCT-116 27.1 µM | HOP-92 20.7 µM | MCF7 33.2 µM | MDA-N 45.1 µM | MOLT-4 15.3 µM | NCI-H460 98.2 µM | NCI-H522 28 µM | NCI/ADR-RES 33 µM | OVCAR-5 41 µM | SF-295 52.1 µM | SK-OV-3 56.5 µM | SR 20.2 µM | UACC-257 50.1 µM

O=C(N/N=C\c1ccc2ccccc2c1)Nc1ccc([N+](=O)[O-])cc1
inactive: BT-549 24.3 µM | CCRF-CEM 28.6 µM | DU-145 23.7 µM | EKVX 47.3 µM | HCT-116 21.1 µM | HOP-92 17.5 µM | MCF7 22.3 µM | MDA-N 23.5 µM | MOLT-4 20 µM | NCI-H460 24.4 µM | NCI-H522 16.3 µM | NCI/ADR-RES 20.9 µM | OVCAR-5 22.5 µM | SF-295 22.5 µM | SK-OV-3 18.9 µM | SR 43 µM | UACC-257 29 µM

CO/N=C(\C(=O)O/C(=N/C1CCCCC1)NC1CCCCC1)c1csc(NC(c2ccccc2)(c2ccccc2)c2ccccc2)n1
inactive: BT-549 > 10 µM | CCRF-CEM > 10 µM | DU-145 > 10 µM | EKVX > 10 µM | HCT-116 > 10 µM | HOP-92 > 10 µM | MCF7 > 10 µM | MDA-N > 10 µM | MOLT-4 > 10 µM | NCI-H460 > 10 µM | NCI-H522 > 10 µM | NCI/ADR-RES > 10 µM | OVCAR-5 > 10 µM | SF-295 > 10 µM | SK-OV-3 > 10 µM | SR > 10 µM | UACC-257 > 10 µM

COC(=O)C1=C(OC(=O)/C(=C/c2ccccc2)c2ccc(Cl)cc2Cl)C(C(=O)OC)[C@@]2(O)[C@@H](C(=O)OC)[C@H](C)C[C@@H]1[C@@H]2C(=O)OC (some centres undefined)
inactive: BT-549 > 100 µM | CCRF-CEM > 100 µM | DU-145 > 100 µM | EKVX > 100 µM | HCT-116 > 100 µM | HOP-92 > 100 µM | MCF7 > 100 µM | MDA-N > 100 µM | MOLT-4 > 100 µM | NCI-H460 > 100 µM | NCI-H522 > 100 µM | NCI/ADR-RES > 100 µM | OVCAR-5 > 100 µM | SF-295 > 100 µM | SK-OV-3 > 100 µM | SR > 100 µM | UACC-257 > 100 µM

CC1CN(c2cc3c(cc2F)c(=O)c(C(=O)O)cn3-c2ccc(F)cn2)CC(C)N1 (centres undefined)
inactive: BT-549 > 100 µM | CCRF-CEM > 100 µM | DU-145 > 100 µM | EKVX > 100 µM | HCT-116 > 100 µM | HOP-92 > 100 µM | MCF7 > 100 µM | MDA-N > 100 µM | MOLT-4 > 100 µM | NCI-H460 > 100 µM | NCI-H522 22.5 µM | NCI/ADR-RES > 100 µM | OVCAR-5 > 100 µM | SF-295 > 100 µM | SK-OV-3 > 100 µM | SR > 100 µM | UACC-257 > 100 µM

Nc1nc(O)c2ncn([C@H]3CC[C@@H](CO)O3)c2n1
inactive: BT-549 > 100 µM | CCRF-CEM > 100 µM | DU-145 > 100 µM | HCT-116 > 100 µM | HOP-92 > 100 µM | MCF7 > 100 µM | MDA-N > 100 µM | MOLT-4 > 100 µM | NCI-H460 > 100 µM | NCI/ADR-RES > 100 µM | OVCAR-5 > 100 µM | SF-295 > 100 µM | SK-OV-3 > 100 µM | SR > 100 µM | UACC-257 > 100 µM

C=C(C)COC1CCCCO1 (centres undefined)
inactive: BT-549 > 100 µM | CCRF-CEM > 100 µM | DU-145 > 100 µM | EKVX > 100 µM | HCT-116 > 100 µM | MCF7 > 100 µM | MDA-N > 100 µM | MOLT-4 > 100 µM | NCI-H460 > 100 µM | NCI-H522 > 100 µM | NCI/ADR-RES > 100 µM | OVCAR-5 > 100 µM | SF-295 > 100 µM | SK-OV-3 > 100 µM | SR > 10 µM | UACC-257 > 100 µM

CC(C)(C)OC(=O)C1=C(C(=O)OC(C)(C)C)SC2(S1)C(C(=O)OC(C)(C)C)=C(C(=O)OC(C)(C)C)Sc1c2ssc1=O
inactive: BT-549 67 µM | CCRF-CEM 18.1 µM | DU-145 31 µM | EKVX 79.3 µM | HCT-116 47.3 µM | HOP-92 > 100 µM | MCF7 49.2 µM | MDA-N 45.2 µM | MOLT-4 7.67 µM | NCI-H460 51.2 µM | NCI-H522 49.3 µM | NCI/ADR-RES > 100 µM | OVCAR-5 59.8 µM | SF-295 > 100 µM | SK-OV-3 > 100 µM | UACC-257 > 100 µM

COc1ccccc1Nc1nc(NNC(=O)Cc2ccccc2)nc(NNC(=O)c2ccncc2)n1
inactive: BT-549 > 10 µM | CCRF-CEM > 10 µM | DU-145 > 10 µM | EKVX > 10 µM | HOP-92 > 10 µM | MCF7 > 10 µM | MDA-N > 10 µM | MOLT-4 > 10 µM | NCI-H460 > 10 µM | NCI/ADR-RES > 10 µM | SK-OV-3 > 10 µM | SR > 10 µM | UACC-257 > 10 µM

CC(=O)OC(OC(C)=O)c1ccc2ccc3cccc4ccc1c2c34
inactive: BT-549 25.1 µM | CCRF-CEM 42.6 µM | DU-145 21 µM | EKVX 27.4 µM | HCT-116 22.4 µM | HOP-92 17.9 µM | MCF7 23.6 µM | MDA-N 15.2 µM | MOLT-4 39.4 µM | NCI-H460 21.4 µM | NCI/ADR-RES 31.3 µM | OVCAR-5 20 µM | SF-295 18.7 µM | SK-OV-3 23 µM | SR 21 µM | UACC-257 17.1 µM

C=C1C(=O)O[C@H]2C[C@@]3(COC(C)=O)C=COC=C(COC(=O)C(C)C)C3CC12 (some centres undefined)
inactive: BT-549 > 100 µM | CCRF-CEM 24 µM | DU-145 > 100 µM | EKVX > 100 µM | HCT-116 37.5 µM | MCF7 52.4 µM | MDA-N 45.7 µM | MOLT-4 28.4 µM | NCI-H460 > 100 µM | NCI-H522 60 µM | NCI/ADR-RES > 100 µM | OVCAR-5 > 100 µM | SF-295 > 100 µM | SR 25.9 µM | UACC-257 > 100 µM

COc1ccc(/C=C2/SC(c3ccc(Cl)cc3)N(NC(=O)CCCCCCCCC(=O)NN3C(=O)/C(=C\c4ccc(OC)c(OC)c4)SC3c3ccc(Cl)cc3)C2=O)cc1OC (centres undefined)
inactive: BT-549 > 100 µM | DU-145 > 100 µM | EKVX 23.6 µM | HCT-116 30.6 µM | HOP-92 18.8 µM | MCF7 > 100 µM | MDA-N 36.6 µM | MOLT-4 47.5 µM | NCI-H460 61 µM | NCI/ADR-RES > 100 µM | OVCAR-5 87.1 µM | SF-295 21.4 µM | SK-OV-3 31.4 µM | SR > 100 µM | UACC-257 54.3 µM

CCCn1c(=O)c2ccccc2[n+]2c(-c3ccc([N+](=O)[O-])cc3)csc12
inactive: BT-549 33.9 µM | CCRF-CEM 27.2 µM | DU-145 38.9 µM | EKVX 42.7 µM | HCT-116 23.8 µM | HOP-92 32.4 µM | MCF7 29.9 µM | MDA-N 31.3 µM | MOLT-4 30.6 µM | NCI-H460 21.9 µM | NCI-H522 18 µM | NCI/ADR-RES 7.67 µM | OVCAR-5 17.8 µM | SF-295 30.8 µM | SK-OV-3 36.9 µM | UACC-257 27.7 µM

COc1ccc(-c2cc(=O)c3c(O)c(OC)c(OC)c(OC)c3o2)cc1OC [5-DEMETHYLNOBILETIN]
inactive: BT-549 50.9 µM | CCRF-CEM > 100 µM | DU-145 > 100 µM | EKVX > 100 µM | HCT-116 > 100 µM | HOP-92 3.73 µM | MCF7 > 100 µM | MDA-N > 100 µM | MOLT-4 > 100 µM | NCI-H522 8.97 µM | NCI/ADR-RES 14.5 µM | OVCAR-5 > 100 µM | SF-295 > 100 µM | SK-OV-3 20.4 µM | SR > 100 µM | UACC-257 > 100 µM

CC(CC(=O)O)(CC(=O)O)C(=O)O
inactive: BT-549 > 100 µM | DU-145 > 100 µM | EKVX > 100 µM | HCT-116 > 100 µM | HOP-92 > 100 µM | MCF7 > 100 µM | MDA-N > 100 µM | MOLT-4 > 100 µM | NCI-H460 > 100 µM | NCI-H522 > 100 µM | NCI/ADR-RES > 100 µM | OVCAR-5 > 100 µM | SF-295 > 100 µM | SK-OV-3 > 100 µM | SR > 100 µM | UACC-257 > 100 µM
